From article PMC8544881 (mSphere, 2021)

Molecular target: T1, ZBTB25 (Homo sapiens, UniProt P24278)
T1 construct: recombinant ZBTB25 protein
T1 sequence (P24278 1-435): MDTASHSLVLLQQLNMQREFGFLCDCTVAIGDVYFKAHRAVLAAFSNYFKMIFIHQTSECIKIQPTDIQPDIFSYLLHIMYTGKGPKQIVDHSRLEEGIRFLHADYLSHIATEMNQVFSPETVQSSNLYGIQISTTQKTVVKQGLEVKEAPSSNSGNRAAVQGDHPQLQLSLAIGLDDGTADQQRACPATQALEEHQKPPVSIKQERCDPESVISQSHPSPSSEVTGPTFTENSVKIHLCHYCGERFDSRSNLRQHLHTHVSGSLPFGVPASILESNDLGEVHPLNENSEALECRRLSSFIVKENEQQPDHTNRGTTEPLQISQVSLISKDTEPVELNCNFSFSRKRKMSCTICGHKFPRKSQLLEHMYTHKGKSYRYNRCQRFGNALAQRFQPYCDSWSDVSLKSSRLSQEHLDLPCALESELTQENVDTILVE
Experiment: zinc ejection assay with FluoZin-3 fluorescence
Assay type: binding

Compound | IC50 [µM]
CCN(CC)C(=S)SSC(=S)N(CC)CC [DS, disulfiram] | 10.3 ± 0.3
dithiopyridine [DP] | 4.61 ± 0.28
